Each compound was assayed against T1, Interleukin-1 receptor-associated kinase 4 (Homo sapiens, UniProt Q9NWZ3) (assay: Biochemical Assay).
T1 sequence (Q9NWZ3 whole entry): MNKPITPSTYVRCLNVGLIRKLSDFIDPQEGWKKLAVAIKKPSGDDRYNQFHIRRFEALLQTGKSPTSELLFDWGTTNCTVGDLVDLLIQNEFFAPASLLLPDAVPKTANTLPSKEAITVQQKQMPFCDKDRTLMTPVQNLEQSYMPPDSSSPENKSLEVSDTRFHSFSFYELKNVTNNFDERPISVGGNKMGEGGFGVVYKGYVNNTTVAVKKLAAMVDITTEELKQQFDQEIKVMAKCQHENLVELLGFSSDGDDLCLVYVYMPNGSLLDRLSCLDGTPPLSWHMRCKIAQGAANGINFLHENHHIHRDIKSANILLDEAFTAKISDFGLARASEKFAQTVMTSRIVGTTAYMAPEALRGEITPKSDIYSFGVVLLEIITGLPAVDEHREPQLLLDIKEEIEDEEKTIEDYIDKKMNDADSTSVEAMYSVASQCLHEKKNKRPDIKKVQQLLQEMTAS
Experimental: The 2-hour 1 mM ATP Biochemical Assay employed a MesoScale Detection (MSD) format. […] After a 1 hour incubation of the plate for 1 hour at room temperature with gentle mixing, the plate wells were washed 3 times with 50 mM Tris, pH 7.5, 150 mM NaCl, 0.02% Tween-20.A 25 μl volume of 1:500 anti-P-Threonine Rabbit polyclonal Antibody plus 1:500 Goat-anti-Rabbit Sulfo Tag Antibody (Meso Scale Discovery R32AB-1) in 50 mM Tris, pH 7.5, 150 mM NaCl, 0.02% Tween-20 plus 2% BSA was then added to each well. After a 1-hour incubation of the plate for 1 hour at room temperature with gentle mixing, the plate wells were washed, 3 times with 50 mM Tris, pH 7.5, 150 mM NaCl, 0.02% Tween-20.

Compound | IC50 [nM]
CC(C)Oc1cc2nc(C34COC(C)(C3)C4)cn2cc1C(=O)Nc1ccnn(C2CC2)c1=O [US20240116922, Example 76] | 1.6
CC[C@H](C)Oc1nc2nc(C34COC(C)(C3)C4)cn2cc1C(=O)Nc1cccn([C@@H]2C[C@@H]2F)c1=O (mixture of isomers) [US20240116922, Example 42] | 0.3
CC[C@H](C)Oc1cc2nc(C34COC(C)(C3)C4)cn2cc1C(=O)Nc1cccn([C@@H]2C[C@@H]2F)c1=O (mixture of isomers) [US20240116922, Example 96] | 0.2

Source: BindingDB's records for patent US20240116922 (Biogen Ma, 2024)
